We go through four compounds from patent US12157713B2, “Conjugated oligoelectrolytes as antimicrobial agents” (Nanyang Technological University, priority 2018, dated 2024).

This assay relates to Pseudomonas aeruginosa (PAO1) biofilm. Description: Anti-biofilm assay (MBEC plate, crystal violet). In kind it is cell-based. To be noted: P. aeruginosa PAO1 biofilm, 1 hour challenge in M9GC. The procedure:
Pseudomonas aeruginosa (PAO1) was grown in Luria-Bertani (LB) broth under shaking (200 rpm) at 37° C. for 16-18 hours. The overnight culture was diluted to 1:200 in M9GC media (M9 medium supplemented with glucose and casamino acids), and 200 μL of diluted culture was added to each well of MBEC plate (Innovotech, Canada). After incubating at 37° C. for 5 hours under shaking (200 rpm), biofilm was formed on the pegs of the MBEC plate. The pegs were then rinsed with 1× phosphate buffered saline (PBS) solution (200 μL per well), and exposed to a two-fold dilution series of COE in M9GC media (200 μL per well). The challenge plate was incubated at 37° C. for 1 hour under shaking (200 rpm), and then the pegs were washed using 200 μL PBS before being dipped into 180 μL 0.1 wt. % crystal violet aqueous solution. After incubating at room temperature for 15 minutes, the pegs were rinsed with PBS twice and transferred to a plate containing 200 μL absolute ethanol in each well for 15 minutes. The biofilm mass was quantified by measuring the absorption of crystal violet/ethanol solution at 550 nm. The minimum biofilm dispersal concentration (MBDC) values were determined as the lowest COE concentration at which biofilm attached on the peg was completely dispersed. The results were repeated in triplicate.

On to `CC(C)(O/N=C(\C(=O)N[C@@H]1C(=O)N2C(C(=O)[O-])=C(C[n+]3ccccc3)CS[C@H]12)c1csc(N)n1)C(=O)O` [Ceftazidime], for which the “Minimum biofilm dispersal concentration” value was greater than 512 µg/mL.
With `O=C(O)c1cn(C2CC2)c2cc(N3CCNCC3)c(F)cc2c1=O` [Ciprofloxacin], the “Minimum biofilm dispersal concentration” value was greater than 512 µg/mL.
Regarding `NC[C@H]1O[C@H](O[C@H]2[C@H](O)[C@@H](O[C@H]3O[C@H](CO)[C@@H](O)[C@H](N)[C@H]3O)[C@H](N)C[C@@H]2N)[C@H](N)C[C@@H]1O` [Tobramycin], the “Minimum biofilm dispersal concentration” value was greater than 512 µg/mL.
Take Gentamicin: the “Minimum biofilm dispersal concentration” value was greater than 512 µg/mL.
